Details of series [1]: method as in PMID 17004725. Particulars: normal mice; cited from earlier work.
A further series relates to Aβ aggregates. On the set-up: method as in PMID 17004725. Particulars: compared with curcumin; cited from earlier work.
Another series deals with T1, Aβ(1–42) aggregates (Homo sapiens, UniProt P05067).
T1 construct: β-Amyloid(1–42) peptide was purchased from Bachem; purchased Bachem (Torrance, CA, USA)
Put plainly: In vitro binding assay using Aβ(1–42) aggregates (intrinsic fluorescence of the ligands). Particulars: Aβ(1–42) aggregates 1 μM, PBS, 37 °C, 1 h, ligand fluorescence. How it is done:
Binding constants of the ligands for Aβ(1–42) aggregates were determined using the intrinsic fluorescence of the ligands. The binding constant of CRANAD-2 was also measured for comparison. […] Considering the Kd values and feasibility of ^18F-labeling of all the ligands, ligand 2 was selected for further in vitro and in vivo studies.
Aβ(1–42) aggregates were prepared as described in the literature. Briefly, Aβ(1–42) peptide (200 μM) was dissolved in PBS and stirred gently at 37 °C for 2 d. The Aβ(1–42) aggregate formation was confirmed by thioflavin-T fluorescence assay. In vitro binding assays were carried out using the methods described in the literature with some modifications. Various concentrations of ligands (10–400 nM) were dissolved in DMSO, which were then added to PBS solutions of Aβ(1–42) aggregates (1 μM) charged in 96-well black clear-bottom plates. The final concentration of DMSO in a total volume of solution was 1%. Non-specific binding was determined in the absence of Aβ(1–42) aggregates. The reaction mixtures were incubated at 37 °C for 1 h, after which the fluorescence spectra of the ligands were obtained (excitation 510–560 nm and emission 590–660 nm) using a monochromator multimode microplate reader. All experiments were performed in triplicate. Kd values were determined using GraphPad Prism software 5.

A further series deals with Aβ(1–40) aggregates. On the set-up: method as in PMID 19807070. To be noted: cited from earlier work.
Details of series [2]: method as in PMID 19807070. To be noted: cited from earlier work.
Details of series [3]: method as in PMID 19807070. Particulars: cited from earlier work. This is another data set of the same source.
A further series deals with HIV-1 protease. On the set-up: method as in PMID 8087563. To be noted: cited from earlier work.
Details of series [4]: method as in PMID 9278892. Particulars: cell culture medium containing 10% fetal calf serum and human blood, at 1 h; cited from earlier work.

In general, Kd refers to the concentration at which binding is half-saturated. Broadly, the IC50 is the concentration that gives 50% inhibition.

Where “and” joins values, the source holds several entries; their conditions need not be identical. Equal entries are not always repeated.

T1 sequence (P05067 672-713): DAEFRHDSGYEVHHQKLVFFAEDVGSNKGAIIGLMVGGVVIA

On to `COc1cc(/C=C/C(=O)CC(=O)/C=C/c2ccc(OCCC[18F])c(OC)c2)ccc1O` [4′-O-[^18F]fluoropropylcurcumin], for which the brain permeability entry in series [1] is “poor brain permeability”.
On to `COc1cc(/C=C/C(=O)CC(=O)/C=C/c2ccc(OCCCF)c(OC)c2)ccc1O` [4′-O-fluoropropylcurcumin], for which the “in vitro binding affinity for Aβ aggregates” value in the series on Aβ aggregates is “much higher than that of curcumin”.
Regarding `CN(C)c1ccc(/C=C/C2=CC(/C=C/c3ccc(N(C)C)cc3)=[O+][B-](F)(F)O2)cc1` [CRANAD-2], the Kd was 19.4 nM on Aβ(1–42) aggregates; 38.7 nM and 38 nM at Aβ(1–40) aggregates. For the same compound, in series [2], the stability in serum result is reported as “stability in the serum”. Besides, in series [3], the “blue shift when binding to the Aβ aggregates” value is recorded as 90 nm. In addition, the emission in series [3] (in methanol) is recorded as 760 nm.
Turning to curcumin, the IC50 in the series with HIV-1 protease was 100000 nM. In series [4], the “stability (% remaining)” value is greater than 80%. Besides, in series [3] (in methanol), the emission was 560 nm and the excitation is 510 nm.

Source of the values: article PMC6494845 (Scientific Reports, 2019).
